From patent US20120041006A1, “Compositions for Raising Uric Acid Levels and Methods of Using the Same” (priority 1998, published 2012)

How the values were obtained:
[1] = Chickens given allopurinol to lower uric acid; glycosylation damage; assay type: in vivo
Description: The following example was conducted to establish the role of uric acid in protecting against the sequelia associated with diabetic damage. It is established that this sequelia occurs in diabetic patients due to increases in sugar levels that result from either the insufficient production of insulin or the insufficient breakdown of sugar by the insulin, depending of the type of diabetes. Sugar, in excess conditions, can become an oxidizer, which leads to oxidative damage in a patient. Glycosylated hemoglobin (HBA1C) is used to measure the amount of oxidative damage that results from excess sugar in a patient; increased (HBA1C) is the definition used for diabetes. […] Chickens are known to have excessively high sugar levels, and should be essentially in a diabetic state. […] To confirm the causal relationship between high levels of uric acid and prevention of glycosylation damage, chickens were given allopurinol. This compound specifically […].

[2] = Oral uric acid precursor in a person with Alzheimer's; assay type: in vivo, human; settings: one Alzheimer's patient; 500-1,000 mg orally per day; upon raising uric acid levels

| Structure (SMILES) | signs of diabetic complications ([1]; after uric acid reduced to below normal levels) | uric acid levels ([1]; enough administered to effect significant conversion of uric acid) | levels of the chicken equivalent of A1C (glycosylated hemoglobin) ([1]; once uric acid reduced to below normal levels) | Alzheimer symptoms (not recognizing bathroom, incontinence, general cognitive decline) [2] |
| --- | --- | --- | --- | --- |
| Oc1ncnc2[nH]ncc12 [allopurinol] | exhibited signs of diabetic complications | lowering of uric acid levels | increased dramatically | – |
| O=c1[nH]cnc2nc[nH]c12 [hypoxanthine] | – | – | – | reduced |
| OC[C@H]1O[C@@H](n2cnc3c(O)ncnc32)[C@H](O)[C@@H]1O [inosine] | – | – | – | reduced |
